Experimental data published in patent publication US20100093531A1 (priority 2007, published 2010).
Read-outs that look alike come from different tables or passages of the source.

Experiments:
[1] = tested on: Phytophthora infestans; format: in vivo; settings: individual active compound, tomato, 6 days after inoculation
[2] = tested on: Phytophthora infestans; experiment: microbe, parasite or virus in culture; format: cell-based; settings: for Efficacy in % of the untreated control: individual active compound, microtiter test, day 7
[3] = tested on: Septoria tritici; experiment: Activity against Septoria tritici in the microtiter test; format: cell-based; settings: individual active compound, day 7
[4] = tested on: Phakopsora pachyrhizi; experiment: Curative control of soy bean rust on soy beans caused by Phakopsora pachyrhizi (greenhouse); format: in vivo; settings: individual active compound, 14 days
Experimental: (§1) Preparation: The spray solutions were prepared in several steps:
(§2) A stock solution was prepared: a mixture of acetone and/or DMSO and the wetting agent/emulsifier Uniperol, which is based on ethoxylated alkylphenoles, in a relation (volume) solvent-emulsifier of 99 to 1 was added to 25 mg of the compound to give a total of 10 ml. Water was then added to total volume of 100 ml.
(§3) This stock solution was diluted with the described solvent-emulsifier-water mixture to the given concentration.
Leaves of pot-grown soy bean seedlings were inoculated with spores of Phakopsora pachyrhizi. To ensure the success the artificial inoculation, the plants were transferred to a humid chamber with a relative humidity of about 95% and 23 to 27° C. for 24 h. The next day the plants were sprayed to run-off with an aqueous suspension, containing the concentration of active ingredient as described below. The plants were allowed to air-dry. Then the trial plants were cultivated for 14 days in a greenhouse chamber at 23-27° C. and a relative humidity between 60 and 80%. The extent of fungal attack on the leaves was visually assessed as % diseased leaf area.
(§4) Evaluation was carried out analogously to example 1.

[5] = tested on: Botrytis cinerea; experiment: Preventative control of grey mold (Botrytis cinerea) on leaves of green pepper (greenhouse); format: in vivo; settings: individual active compound, 5 days after inoculation
Experimental: as §1, §2, §3
Young seedlings of green pepper were grown in pots to the 2 to 3 leaf stage. These plants were sprayed to run-off with an aqueous suspension, containing the concentration of active ingredient or their mixture mentioned in the table below. The next day the treated plants were inoculated with a spore suspension of Botrytis cinerea in a 2% aqueous biomalt solution. Then the trial plants were immediately transferred to a dark, humid chamber. After 5 days at 22 to 24° C. and a relative humidity close to 100% the extent of fungal attack on the leaves was visually assessed as % diseased leaf area.
as §4

[6] = tested on: Plasmopara viticola; experiment: Fungicidal control of grape downy mildew caused by Plasmopara viticola (greenhouse); format: in vivo; settings: individual active compound
Experimental: as §1, §2, §3
Grape cuttings were grown in pots to the 4 to 5 leaf stage. These plants were sprayed to run-off with an aqueous suspension, containing the concentration of active ingredient or their mixture mentioned in the table below. The plants were allowed to air-dry. The next day they were inoculated with an aqueous spore suspension of Plasmopara viticola by spraying it at the lower leaf-side. Then the trial plants were immediately transferred for 24 h to a humid chamber with 22-24° C. and a relative humidity close to 100%. For a period of 5 days, cultivation followed in a greenhouse at 20-25° C. and a relative humidity about 50-80%. To stimulate the outbreak of the disease symptoms, the plants were transferred to a humid chamber again for 24 hours. Then the extent of fungal attack on the lower leaf surface was visually assessed as % diseased leaf area.
as §4

[7] = Phytophthora infestans, 168 h, read-out: Efficacy in % of the untreated control

`CCc1nc2ncnn2c(N)c1CCC(C)CC(C)(C)C` (stereo not drawn) [Tab. 1, # I-113, 5-ethyl-6-(3,5,5-trimethylhexyl)[1,2,4]triazolo[1,5-a]pyrimidin-7-ylamine] was tested, and the “Efficacy in % of the untreated control” value ([1]; 4 ppm in the spray liquor) was 22% and the inhibition of growth at 4 ppm [2, 7] was 11%.

`CC1(C)C(C=C(Cl)Cl)C1C(=O)OC(C#N)c1cccc(Oc2ccccc2)c1` (stereo not drawn) [α-Cypermethrin] was tested, and the “Efficacy in % of the untreated control” value ([3]; 63 ppm) was 9%.

In the case of `CNC(=O)Oc1cccc2c1OC(C)(C)C2` [Carbofuran, reference compound], the “Efficacy in % of the untreated control” value ([1]; 16 ppm in the spray liquor) is reported as 0%, the “Efficacy in % of the untreated control” value ([4]; 16 ppm in the spray liquor) is reported as 0% and the inhibition of growth at 1 ppm [2, 7] is reported as 6%. It also gave an inhibition of growth at 4 ppm [2, 7] of 8% and an inhibition of growth at 16 ppm [2, 7] of 12%.

With `N#Cc1nn(-c2c(Cl)cc(C(F)(F)F)cc2Cl)c(N)c1[S+]([O-])C(F)(F)F` (stereo not drawn) [Fipronil, reference compound] the “Efficacy in % of the untreated control” value ([1]; 16 ppm in the spray liquor) was 0%, the “Efficacy in % of the untreated control” value ([1]; 63 ppm in the spray liquor) was 0% and the “Efficacy in % of the untreated control” value ([5]; 63 ppm in the spray liquor) was 10%. For the same molecule, the “Efficacy in % of the untreated control” value ([6]; 16 ppm in the spray liquor) was 0%, the inhibition of growth at 1 ppm [2, 7] was 1% and the inhibition of growth at 4 ppm [2, 7] was 16%. For the same molecule, the inhibition of growth at 16 ppm [2, 7] was 20%.

Molecule `CC1(C)C(C=C(Cl)Cl)C1C(=O)OC(C#N)c1cccc(Oc2ccccc2)c1` (stereo not drawn) [alpha-Cypermethrin] has an inhibition of growth at 4 ppm [2, 7] of 7% and an inhibition of growth at 16 ppm [2, 7] of 9%.

In the case of `CCNC(=NNc1c(Cl)cc(C(F)(F)F)cc1Cl)C1(C)CC1(Cl)Cl` (stereo not drawn) [A.23-1, N-R′-2,2-dihalo-1-R″cyclo-propanecarboxamide-2-(2,6-dichloro-α,α,α-fluoro-p-tolyl)hydrazone, wherein R′ is ethyl, halo is chloro, and R″ is methyl], the “Efficacy in % of the untreated control” value ([4]; 63 ppm in the spray liquor) is reported as 0%, the “Efficacy in % of the untreated control” value ([2]; 1 ppm) is reported as 10% and the “Efficacy in % of the untreated control” value ([2]; 4 ppm) is reported as 15%. For the same molecule, the “Efficacy in % of the untreated control” value ([2]; 16 ppm) was 15%.

`C/C(=N\C#N)N(C)Cc1ccc(Cl)nc1` [Acetamipyrid] was tested, and the “Efficacy in % of the untreated control” value ([6]; 16 ppm in the spray liquor) was 0%, the “Efficacy in % of the untreated control” value ([2]; 4 ppm) was 7% and the “Efficacy in % of the untreated control” value ([2]; 16 ppm) was 9%.

In the case of `O=[N+]([O-])NC1=NCCN1Cc1ccc(Cl)nc1` [Imidacloprid, reference compound], the “Efficacy in % of the untreated control” value ([1]; 16 ppm in the spray liquor) is reported as 22%, the inhibition of growth at 1 ppm [2, 7] is reported as 5% and the inhibition of growth at 4 ppm [2, 7] is reported as 6%. For the same molecule, the inhibition of growth at 16 ppm [2, 7] was 11%.

With `CCCCCCCCc1c(COC)nc2ncnn2c1N` [Tab. 1, # I-245, 5-methoxymethyl-6-octyl-[1,2,4]triazolo[1,5-a]pyrimidin-7-ylamine] the “Efficacy in % of the untreated control” value ([1]; 16 ppm in the spray liquor) was 0%, the “Efficacy in % of the untreated control” value ([4]; 4 ppm in the spray liquor) was 0% and the “Efficacy in % of the untreated control” value ([4]; 16 ppm in the spray liquor) was 0%. The inhibition of growth at 0.25 ppm [2, 7] was 10% and the “Efficacy in % of the untreated control” value ([3]; 16 ppm) was 4%.

`Cc1nc2ncnn2c(N)c1-c1ccc(Cl)c(Cl)c1` [Tab. 1, I-9, 6-(3,4-dichlorophenyl)-5-methyl-[1,2,4]triazolo[1,5-a]pyrimidin-7-ylamine] was tested, and the “Efficacy in % of the untreated control” value ([6]; 4 ppm in the spray liquor) was 0%, the inhibition of growth at 1 ppm [2, 7] was 64% and the “Efficacy in % of the untreated control” value ([3]; 16 ppm) was 12%.

`CN/C(=N\[N+](=O)[O-])NCc1cnc(Cl)s1` [Clothianidin] was tested, and the inhibition of growth at 1 ppm [2, 7] was 2%, the inhibition of growth at 4 ppm [2, 7] was 2% and the inhibition of growth at 16 ppm [2, 7] was 11%.

With `CC1(C)C(C=C(Cl)Cl)C1C(=O)OC(C#N)c1cccc(Oc2ccccc2)c1` (stereo not drawn) [α-Cypermetrin] the “Efficacy in % of the untreated control” value ([6]; 63 ppm in the spray liquor) was 0%.

In the case of `N#Cc1ccc(C/C(=N\NC(=O)Nc2ccc(OC(F)(F)F)cc2)c2cccc(C(F)(F)F)c2)cc1` [Metaflumizon], the “Efficacy in % of the untreated control” value ([6]; 16 ppm in the spray liquor) is reported as 0%, the “Efficacy in % of the untreated control” value ([2]; 4 ppm) is reported as 6% and the “Efficacy in % of the untreated control” value ([2]; 16 ppm) is reported as 12%. For the same molecule, the “Efficacy in % of the untreated control” value ([3]; 63 ppm) was 0%.

`CCCCCCCCc1c(CC)nc2ncnn2c1N` [Tab. 1, I-110, 5-ethyl-6-octyl-[1,2,4]triazolo[1,5-a]pyrimidin-7-ylamine] was tested, and the inhibition of growth at 1 ppm [2, 7] was 7%.

`CCCCCCCCc1nc2ncnn2c(N)c1CC` [Tab. 1, # I-290, 6-ethyl-5-octyl-[1,2,4]triazolo[1,5-a]pyrimidin-7-ylamine] was tested, and the “Efficacy in % of the untreated control” value ([5]; 16 ppm in the spray liquor) was 0%, the “Efficacy in % of the untreated control” value ([6]; 4 ppm in the spray liquor) was 0% and the “Efficacy in % of the untreated control” value ([6]; 16 ppm in the spray liquor) was 56%.
